In patent US20230172923A1, “METHODS OF TREATING CYTOKINE-RELATED ADVERSE EVENTS” (BRISTOL-MYERS SQUIBB COMPANY, priority 2020, published 2023):

Assays:
Format in all cases: cell-based, human
NCI-H929 cells = test: CC-93269 mediated cytotoxicity assay with chronically stimulated T-cells, NCI-H929 target cells (IncuCyte); conditions: anti-CD3/CD28 7 days with 100 nM pomalidomide, 10 nM iberdomide or 1 nM CC-92480; CC-93269 47 pM; E:T 1:4
Protocol: Cell growth kinetics of A) NCI-H929 and B) OPM-2 cells in CC-93269 (47 pM) cytotoxicity assays on the IncuCyte® S3 Live-Cell Analysis System. Healthy donor T-cells were used as effector cells with or without chronic stimulation with anti-CD3/CD28 (7 days) in the presence of DMSO or CM agents (100 nM Pomalidomide, 10 nM CC-220 or 1 nM CC-92480). T-cells and NCI-H929 cells were co-cultured at E:T ratios of 1:4 (NCI-H929) or 1:2 (OPM-2). […] In contrast, prior exposure to CM agents prevented functional TBMS cell exhaustion and CC-93269 activity was similar or better to those observed with freshly thawed T-cells. Values shown represent the mean ± standard deviation of AUC values of 2-3 replicates from the same experiment.
To evaluate the effects of Cereblon modulating (CM) agents on T-cell function after chronic stimulation (i.e. mimicking T cell exhaustion), CD3+ enriched healthy donor T-cells were stimulated with anti-CD3/CD28 in the presence of DMSO (control), 100 nM pomalidomide, 10 nM iberdomide (CC-220) or 1 nM Compound 1 (CC-92480) for 7 days. Prolonged and repetitive anti-CD3/CD28 stimulation of T-cells results in functional T-cell exhaustion in vitro.
The chronically stimulated T-cells were then used in CC-93269 mediated cytotoxicity assays with NCI-H929 or OPM-2 multiple myeloma (MM) target cells. The T-cells were washed to remove compounds, and mixed with fluorescently labelled MM cell lines (NCI-H929, OPM-2) at optimized effector-to-target (E:T) ratios (1:2 or 1:4) in the presence of fixed concentrations of CC-93269 (47 pM). Freshly thawed T-cells (i.e. non-exhausted T-cells) from the same donor were used as control effector cells. In this experimental cytotoxicity assay setup, the number of target cells was continuously monitored using the IncuCyte® S3 Live-Cell Analysis System for a minimum of 10 days. Cell culture supernatants were taken from wells from subsequent CC-93269 mediated cytotoxicity assays at 3 days after mixing with MM target cells. CD3+ T cells from 2 or 3 independent healthy donors were tested for each MM cell line.

IL-6 [1] = test: LPS-induced IL-6 secretion from isolated monocytes (MSD); conditions: overnight (~17 hours) 1000 nM lenalidomide, 100 nM pomalidomide, 10 nM iberdomide or 1 nM Compound 1; LPS 4 hours
Protocol: Monocytes from healthy volunteers were seeded at a concentration of 1×10^6 cells/ml and treated with the indicated concentration of IMiD/CELMoD agents overnight (~17 hours). The next morning, the monocytes were incubated with the indicated concentration of LPS for 4 hours, before IL-6 levels in the supernatant were assessed using an MSD assay.
eripheral blood mononuclear cells (PBMCs) were isolated from the blood of four healthy human donors by Ficoll cell separation, and then monocytes were isolated from these PBMCs by negative selection. The enriched monocytes were seeded at a concentration of 1×10^6 cells/ml and incubated overnight (~17 hours) with 1000 nM lenalidomide, 100 nM pomalidomide, 10 nM iberdomide or 1 nM Compound 1, or control DMSO (0.001%), before stimulation with various concentrations of LPS for IL-6 secretion.
After 4 hours, the cell culture was spun down at 300 g for 5 minutes to remove cells, and the supernatant was subjected to Meso Scale Discovery (MSD) analysis to quantify secreted IL-6.

IL-6 [2] = test: LPS-induced IL-6 secretion from isolated macrophages (M0) (MSD); conditions: overnight (~17 hours) 1000 nM lenalidomide, 100 nM pomalidomide, 10 nM iberdomide or 1 nM Compound 1; then LPS
Protocol: Monocytes from healthy volunteers were seeded at a concentration of 3×10^5 cells/ml for 4 days with RPMI 1640 media containing M-CSF (50 ng/mL) (50% media replaced after 2 days) to obtain naive macrophages (M0). At the end of day 4, macrophages were treated with the indicated concentration of IMiD/CELMoD agents overnight (~17 hours). The next morning, the macrophages were stimulated with the indicated concentration of LPS for 8 hours, before IL-6 levels in the supernatant were assessed using an MSD assay.
Peripheral blood mononuclear cells (PBMCs) were isolated from the blood of two healthy human donors by Ficoll cell separation, and then monocytes were isolated from these PBMCs by positive selection using MACS […] magnetic microbeads. The isolated monocytes were seeded at a concentration of 3×10^5 cells/ml and incubated for 4 days with RPMI 1640 media containing M-CSF (50 ng/mL) (50% media replaced after 2 days) to obtain naive macrophages (M0). At the end of day 4, the macrophages were incubated overnight (~17 hours) with 1000 nM lenalidomide, 100 nM pomalidomide, 10 nM iberdomide or 1 nM Compound 1, or control DMSO (0.001%), before stimulation with various concentrations of LPS for IL-6 secretion.
After 6 hours, the cell culture was spun down at 300 g for 5 minutes to remove cells, and the supernatant was subjected to MSD analysis to quantify secreted IL-6.

MDC = test: LPS-stimulated PBMC cytokine production, multiplex cytokine analysis: MDC; conditions: Homo sapiens, PBMC, PBMC 2×10^6 cells/ml, compound 1 hour, then 1 ng/ml LPS 18 hours
Protocol: Peripheral blood mononuclear cells (PBMCs) were isolated from the blood of healthy human donors by Ficoll cell separation. […] Supernatant samples were subjected to multiplex cytokine analysis (Luminex IS100 instrument) to quantify secreted levels of IL-6, IL-8, IL1-beta (IL-1β), GM-CSF, MDC, MIP-1alpha (MIP-1α), MIP-1beta (MIP-1β) and TNF-alpha (TNF-α) (see e.g. FIGS. 7A-C). IC50 (half maximal inhibitory concentration) values were calculated to measure the potency of each IMiD compound in inhibiting LPS-stimulated secretion of each cytokine (see Table 25).

SMILES: N#Cc1ccc(N2CCN(Cc3ccc(COc4cccc5c4CN(C4CCC(=O)NC4=O)C5=O)cc3)CC2)c(F)c1 (stereo not drawn) [Compound 1, 4-(4-(4-(((2-(2,6-dioxopiperidin-3-yl)-1-oxoisoindolin-4-yl)oxy)methyl)benzyl)piperazin-l-yl)-3-fluorobenzonitrile]
- cytolytic function of chronically stimulated T-cells in CC-93269-directed killing of NCI-H929 cells (NCI-H929 cells): beneficial effects on the cytolytic function of T-cells
- LPS-induced IL-6 secretion from monocytes (IL-6 [1]): diminished
- LPS-induced IL-6 secretion from macrophages (IL-6 [2]): diminished

SMILES: O=C1CC[C@H](N2Cc3c(OCc4ccc(CN5CCOCC5)cc4)cccc3C2=O)C(=O)N1 [Iberdomide, (S)-3-(4-((4-(morpholinomethyl)benzyl)oxy)-1-oxoisoindolin-2-yl)piperidine-2,6-dione]
- IC50 (MDC): 0.0021 µM
- cytolytic function of chronically stimulated T-cells in CC-93269-directed killing of NCI-H929 cells (NCI-H929 cells): beneficial effects on the cytolytic function of T-cells
- LPS-induced IL-6 secretion from monocytes (IL-6 [1]): diminished
- LPS-induced IL-6 secretion from macrophages (IL-6 [2]): diminished

SMILES: Nc1cccc2c1CN(C1CCC(=O)NC1=O)C2=O (centres unmarked) [Lenalidomide, 3-(4-amino-1-oxo-2,3-dihydro-1H-isoindol-2-yl) piperidine-2,6-dione]
- IC50 (MDC): 0.19 µM
- LPS-induced IL-6 secretion from monocytes (IL-6 [1]): diminished
- LPS-induced IL-6 secretion from macrophages (IL-6 [2]): diminished

SMILES: Nc1cccc2c1C(=O)N(C1CCC(=O)NC1=O)C2=O (centres unmarked) [Pomalidomide, 4-amino-2-(2,6-dioxopiperidine-3-yl)isoindoline-1,3-dione]
- IC50 (MDC): 0.031 µM
- cytolytic function of chronically stimulated T-cells in CC-93269-directed killing of NCI-H929 cells (NCI-H929 cells): beneficial effects on the cytolytic function of T-cells
- LPS-induced IL-6 secretion from monocytes (IL-6 [1]): diminished
- LPS-induced IL-6 secretion from macrophages (IL-6 [2]): diminished
